Source: patent publication US8106055B2, “Substituted amide compounds” (Gruenenthal GmbH, priority 2007, dated 2012)

What was measured:
[1] = target: T1, serotonin (5-HT) reuptake (Rattus norvegicus, UniProt P31652); test: Inhibition of serotonin (5HT) reuptake in synaptosomes from rat brain; type: biochemical; conditions: test concentration of 10 μM
T1 construct: synaptosomes are freshly isolated from areas of the rat brain; from tissue; host or cells: rat brain synaptosomes (P2 fraction)
How it was run: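 Compounds screened at 10 μM and reported as percent inhibition of serotonin uptake. Uptake measured in a freshly prepared P2 synaptosomal fraction from rat brain.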

[2] = target: T2, human μ opiate receptor (Homo sapiens, UniProt P35372); test: Affinity for the human μ opiate receptor ([3H]-naloxone displacement, CHO-K1 receptor membrane preparation, SPA); type: binding; conditions: test concentration of 1 μM
T2 construct: purchased PerkinElmer Life Sciences, Zaventem, Belgium RB-HOM; host or cells: CHO-K1 cells (membrane preparation)
How it was run: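 SPA, CHO-K1 hμ membranes; 1 nmol/l [3H]-naloxone; Tris-HCl 50 mmol/l + 0.06% BSA; 90 min RT; NSB with 100 μmol/l naloxone; β-counting. Readout: % inhibition of specific binding at 1 μM test compound.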

T1 sequence (P31652 whole entry): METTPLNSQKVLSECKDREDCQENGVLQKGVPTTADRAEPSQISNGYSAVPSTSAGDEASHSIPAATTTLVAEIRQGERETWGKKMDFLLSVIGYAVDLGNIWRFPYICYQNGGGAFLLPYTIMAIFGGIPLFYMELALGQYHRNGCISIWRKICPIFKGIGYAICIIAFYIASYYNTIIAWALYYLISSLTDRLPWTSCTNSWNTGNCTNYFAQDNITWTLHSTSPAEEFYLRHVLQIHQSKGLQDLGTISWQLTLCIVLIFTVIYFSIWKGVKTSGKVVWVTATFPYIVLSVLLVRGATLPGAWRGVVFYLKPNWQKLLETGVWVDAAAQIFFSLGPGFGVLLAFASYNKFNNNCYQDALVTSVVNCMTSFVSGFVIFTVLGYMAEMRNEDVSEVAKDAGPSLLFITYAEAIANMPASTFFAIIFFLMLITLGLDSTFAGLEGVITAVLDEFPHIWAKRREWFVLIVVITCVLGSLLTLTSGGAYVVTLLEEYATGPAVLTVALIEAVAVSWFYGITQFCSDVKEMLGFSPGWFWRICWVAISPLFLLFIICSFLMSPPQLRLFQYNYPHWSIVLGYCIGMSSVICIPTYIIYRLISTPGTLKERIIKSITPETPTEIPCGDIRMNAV
T2 sequence (P35372 whole entry): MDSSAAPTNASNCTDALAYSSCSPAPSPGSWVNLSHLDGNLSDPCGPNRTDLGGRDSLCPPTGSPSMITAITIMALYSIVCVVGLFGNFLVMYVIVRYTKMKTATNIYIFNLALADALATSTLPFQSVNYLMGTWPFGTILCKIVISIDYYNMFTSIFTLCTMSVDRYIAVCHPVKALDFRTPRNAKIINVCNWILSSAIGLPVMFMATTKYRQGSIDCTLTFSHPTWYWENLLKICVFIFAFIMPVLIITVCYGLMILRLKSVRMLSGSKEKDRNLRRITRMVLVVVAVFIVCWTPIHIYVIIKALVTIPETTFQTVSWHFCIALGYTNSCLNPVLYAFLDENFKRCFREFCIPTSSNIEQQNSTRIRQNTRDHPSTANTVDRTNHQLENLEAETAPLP

Compound	5-HT (inhibition of reuptake of serotonin, % inhibition) [1]	μ (binding on the μ opioid receptor, % inhibition) [2]
CN(C)C(c1cccc(F)c1)C1CCC(CCNC(=O)COCCN(Cc2ccccc2)S(=O)(=O)c2ccccc2)CC1 (centres unmarked) [Example 278]	98%	77%
COc1cc(C)c(S(=O)(=O)N2CCCC(OCC(=O)NC3CCC(C(c4cccc(F)c4)N(C)C)CC3)C2)c(C)c1C (centres unmarked) [Example 279]	85%	77%
COc1ccc(S(=O)(=O)N2CCCCC2COCC(=O)NCC2CCC(C(c3ccc(Cl)cc3)N(C)C)CC2)c(OC)c1 (centres unmarked) [Example 280]	78%	73%
COc1ccc(S(=O)(=O)N2CCCCC2COCC(=O)NCCC2CCC(C(c3cccc(F)c3)N(C)C)CC2)c(OC)c1 (centres unmarked) [Example 281]	89%	77%
CN(C)C(c1cccs1)C1CCC(NC(=O)COCCN(C)S(=O)(=O)c2ccc(OC(F)(F)F)cc2)CC1 (centres unmarked) [Example 282]	52%	74%
CN(C)C(c1cccc(F)c1)C1CCC(NC(=O)COC2CCN(S(=O)(=O)c3ccc(Cl)cc3Cl)C2)CC1 (centres unmarked) [Example 283]	91%	74%
CN(C)C(c1ccc(Cl)cc1)C1CCC(CNC(=O)COCCN(C)S(=O)(=O)c2ccc(Cl)cc2)CC1 (centres unmarked) [Example 284]	87%	70%
CN(C)C(c1ccc(F)cc1)C1CCC(CCNC(=O)COCCN(C)S(=O)(=O)c2c(Cl)cccc2Cl)CC1 (centres unmarked) [Example 285]	89%	69%
COc1cc(C)c(S(=O)(=O)N2CCC(OCC(=O)NC3CCC(C(c4cccc(F)c4)N(C)C)CC3)CC2)c(C)c1C (centres unmarked) [Example 286]	92%	76%
COc1cc(C)c(S(=O)(=O)N2CCC(OCC(=O)NCC3CCC(C(c4cccc(F)c4)N(C)C)CC3)CC2)c(C)c1C (centres unmarked) [Example 287]	96%	71%
COc1ccc(S(=O)(=O)N2Cc3ccccc3CC2COCC(=O)NCC2CCC(C(c3ccc(F)cc3)N(C)C)CC2)cc1 (centres unmarked) [Example 288]	94%	65%
CN(C)C(c1ccc(Cl)cc1)C1CCC(CCNC(=O)COCCN(C)S(=O)(=O)c2cccc(C(F)(F)F)c2)CC1 (centres unmarked) [Example 289]	94%	67%
CN(C)C(c1ccc(F)cc1)C1CCC(NC(=O)COC2CCN(S(=O)(=O)c3ccc(Cl)cc3Cl)C2)CC1 (centres unmarked) [Example 290]	89%	67%
CN(C)C(c1ccc(Cl)cc1)C1CCC(CCNC(=O)COCCN(C)S(=O)(=O)c2ccc(Cl)cc2Cl)CC1 (centres unmarked) [Example 291]	81%	65%
COc1ccc(S(=O)(=O)N(C)CCOCC(=O)NCCC2CCC(C(c3cccc(F)c3)N(C)C)CC2)cc1 (centres unmarked) [Example 292]	83%	74%
COc1ccc(S(=O)(=O)N(C)CCOCC(=O)NCCC2CCC(C(c3cccc(F)c3)N(C)C)CC2)cc1OC (centres unmarked) [Example 293]	95%	75%
CN(C)C(c1ccc(Cl)cc1)C1CCC(CNC(=O)COCC2CCCN(S(=O)(=O)c3ccccc3)C2)CC1 (centres unmarked) [Example 294]	88%	63%
CN(C)C(c1cccc(F)c1)C1CCC(CCNC(=O)COCC2CCCN(S(=O)(=O)c3ccccc3)C2)CC1 (centres unmarked) [Example 295]	99%	71%
CN(C)C(c1cccc(F)c1)C1CCC(CNC(=O)COCCN(Cc2ccccc2)S(=O)(=O)c2ccccc2)CC1 (centres unmarked) [Example 296]	96%	64%
CN(C)C(c1cccc(F)c1)C1CCC(NC(=O)COCCN(C)S(=O)(=O)c2cccc(C(F)(F)F)c2)CC1 (centres unmarked) [Example 297]	86%	74%
COc1cc(C)c(S(=O)(=O)N(C)CCOCC(=O)NCC2CCC(C(c3ccc(Cl)cc3)N(C)C)CC2)c(C)c1C (centres unmarked) [Example 298]	79%	64%
CN(C)C(c1ccc(Cl)cc1)C1CCC(CNC(=O)COC2CCN(S(=O)(=O)c3ccccc3)C2)CC1 (centres unmarked) [Example 299]	103%	63%

Compound	5-HT (inhibition of reuptake of serotonin, % inhibition) [1]	μ (binding on the μ opioid receptor, % inhibition) [2]
CN(C)C(c1ccccc1)C1CCC(CNC(=O)COC2CCN(S(=O)(=O)c3ccccc3)CC2)CC1 (centres unmarked) [Example 300]	94%	66%
CN(C)C(c1ccc(Cl)cc1)C1CCC(CNC(=O)COC2CCCN(S(=O)(=O)c3ccccc3)C2)CC1 (centres unmarked) [Example 301]	92%	69%
CN(C)C(c1cccc(F)c1)C1CCC(CNC(=O)COCCN(C)S(=O)(=O)c2cccc(C(F)(F)F)c2)CC1 (centres unmarked) [Example 302]	92%	75%
CN(C)C(c1cccc(F)c1)C1CCC(CNC(=O)COCCN(C)S(=O)(=O)c2ccc(OC(F)(F)F)cc2)CC1 (centres unmarked) [Example 303]	83%	66%
Cc1ccc(S(=O)(=O)N2CCC(OCC(=O)NCC3CCC(C(c4ccc(Cl)cc4)N(C)C)CC3)C2)cc1 (centres unmarked) [Example 304]	88%	64%
Cc1ccc(S(=O)(=O)N2CCC(OCC(=O)NCCC3CCC(C(c4ccc(Cl)cc4)N(C)C)CC3)C2)cc1 (centres unmarked) [Example 305]	88%	63%
Cc1ccc(S(=O)(=O)N(C)CCOCC(=O)NCCC2CCC(C(c3ccc(Cl)cc3)N(C)C)CC2)cc1 (centres unmarked) [Example 306]	91%	60%
COc1cc(C)c(S(=O)(=O)N2CCC(OCC(=O)NCCC3CCC(C(c4cccc(F)c4)N(C)C)CC3)C2)c(C)c1 (centres unmarked) [Example 307]	97%	73%
CN(C)C(c1cccc(F)c1)C1CCC(CNC(=O)COCCN2CCN(S(=O)(=O)c3ccccc3)CC2)CC1 (centres unmarked) [Example 308]	93%	60%
CN(C)C(c1cccc(F)c1)C1CCC(CNC(=O)COC2CCCN(S(=O)(=O)c3ccccc3)C2)CC1 (centres unmarked) [Example 309]	94%	69%
CCN(CCOCC(=O)NCC1CCC(C(c2ccc(Cl)cc2)N(C)C)CC1)S(=O)(=O)c1c(C)cc(OC)c(C)c1C (centres unmarked) [Example 310]	83%	61%
COc1ccc(S(=O)(=O)N2CCCCC2COCC(=O)NCCC2CCC(C(c3ccc(Cl)cc3)N(C)C)CC2)cc1 (centres unmarked) [Example 311]	95%	67%
COc1ccc(S(=O)(=O)N2CCCCC2CCOCC(=O)NCC2CCC(C(c3ccc(Cl)cc3)N(C)C)CC2)cc1 (centres unmarked) [Example 312]	89%	61%
COc1ccc(S(=O)(=O)N2CCCC2COCC(=O)NCC2CCC(C(c3cccc(F)c3)N(C)C)CC2)cc1 (centres unmarked) [Example 313]	93%	71%
CN(C)C(c1ccc(Cl)cc1)C1CCC(CNC(=O)COCCN(C)S(=O)(=O)c2cccc(C(F)(F)F)c2)CC1 (centres unmarked) [Example 314]	93%	64%
COc1cc(C)c(S(=O)(=O)N(C)CCOCC(=O)NCCC2CCC(C(c3ccc(Cl)cc3)N(C)C)CC2)c(C)c1C (centres unmarked) [Example 317]	88%	62%
CN(C)C(c1ccc(Cl)cc1)C1CCC(CNC(=O)COCCN(C)S(=O)(=O)c2c(Cl)cc(Cl)cc2Cl)CC1 (centres unmarked) [Example 318]	91%	65%
COc1cc(C)c(S(=O)(=O)N2CCC(CCOCC(=O)NCC3CCC(C(c4cccc(F)c4)N(C)C)CC3)CC2)c(C)c1C (centres unmarked) [Example 319]	87%	71%
COc1cc(C)c(S(=O)(=O)N2CCN(CCOCC(=O)NCCC3CCC(C(c4ccc(Cl)cc4)N(C)C)CC3)CC2)c(C)c1C (centres unmarked) [Example 320]	98%	65%
COc1ccc(S(=O)(=O)N2CCCCC2COCC(=O)NCC2CCC(C(c3ccc(Cl)cc3)N(C)C)CC2)cc1 (centres unmarked) [Example 321]	86%	70%
COc1ccc(S(=O)(=O)N2CCCCC2COCC(=O)NC2CCC(C(c3cccc(F)c3)N(C)C)CC2)c(OC)c1 (centres unmarked) [Example 322]	78%	70%
